Source: the Kinase Knowledgebase extract (Sharma et al. 2016)

Molecular target: PIK3CG (human) (UniProt P48736)
Test: Assessment of PIK3CG Kinase Activity

Sequence of PIK3CG (human) (P48736 whole entry, looked up): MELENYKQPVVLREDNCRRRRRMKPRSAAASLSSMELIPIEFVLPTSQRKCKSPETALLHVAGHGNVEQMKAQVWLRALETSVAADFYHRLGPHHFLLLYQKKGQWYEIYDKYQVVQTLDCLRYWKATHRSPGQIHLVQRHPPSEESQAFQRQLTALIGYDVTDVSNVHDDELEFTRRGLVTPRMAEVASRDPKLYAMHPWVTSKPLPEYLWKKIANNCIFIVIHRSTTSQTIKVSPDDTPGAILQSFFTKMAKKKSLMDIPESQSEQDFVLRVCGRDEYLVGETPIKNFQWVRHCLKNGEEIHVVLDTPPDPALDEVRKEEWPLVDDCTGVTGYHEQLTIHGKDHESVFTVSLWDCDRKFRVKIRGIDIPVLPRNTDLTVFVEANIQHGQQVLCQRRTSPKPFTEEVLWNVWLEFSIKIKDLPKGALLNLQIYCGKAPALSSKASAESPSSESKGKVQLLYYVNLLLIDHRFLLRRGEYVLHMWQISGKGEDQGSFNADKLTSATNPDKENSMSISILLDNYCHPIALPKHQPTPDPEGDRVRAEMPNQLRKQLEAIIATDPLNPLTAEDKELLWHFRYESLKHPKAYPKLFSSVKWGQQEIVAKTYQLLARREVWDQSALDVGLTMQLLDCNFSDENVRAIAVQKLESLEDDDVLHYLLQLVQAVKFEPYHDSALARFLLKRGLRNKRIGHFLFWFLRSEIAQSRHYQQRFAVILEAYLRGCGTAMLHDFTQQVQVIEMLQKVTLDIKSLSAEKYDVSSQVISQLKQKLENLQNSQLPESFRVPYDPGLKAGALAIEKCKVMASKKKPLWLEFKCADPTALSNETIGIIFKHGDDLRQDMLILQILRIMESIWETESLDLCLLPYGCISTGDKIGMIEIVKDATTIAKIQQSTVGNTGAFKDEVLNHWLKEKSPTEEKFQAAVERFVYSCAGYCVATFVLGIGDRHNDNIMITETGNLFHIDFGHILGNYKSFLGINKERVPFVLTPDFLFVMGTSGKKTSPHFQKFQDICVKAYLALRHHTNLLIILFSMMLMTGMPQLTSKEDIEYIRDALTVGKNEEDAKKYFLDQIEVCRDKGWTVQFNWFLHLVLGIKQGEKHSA

**Q.** With `CC(=O)Nc1nc2c(s1)-c1nc(-c3cc(C#CC4CCN(C(C)C)CC4)ccc3Cl)ncc1CC2` as the compound, how does the IC50 read?
**A.** < 600 nM

**Q.** For `CC(=O)Nc1nc2c(s1)-c1nc(-c3cc(C#CCNS(=O)(=O)CC(F)(F)F)ccc3Cl)ncc1CC2`, which IC50 is on record?
**A.** < 600 nM

**Q.** `CC(=O)Nc1nc2c(s1)-c1nc(-c3cccc(C#CC4CCN(C(C)C)CC4)c3)ncc1CC2` was tested. Which IC50 did it give?
**A.** < 600 nM

**Q.** With `CC(=O)Nc1nc2c(s1)-c1nc(-c3cc(C#CCNC(=O)N4CCCC4)ccc3Cl)ncc1CC2` as the compound, how does the IC50 read?
**A.** < 600 nM

**Q.** With `CC(=O)Nc1nc2c(s1)-c1nc(-c3cc(C#CCNS(=O)(=O)C(F)(F)F)ccc3Cl)ncc1CC2` as the compound, how does the IC50 read?
**A.** < 600 nM

**Q.** `CC(=O)Nc1nc2c(s1)-c1nc(-c3cc(C#CC4CCN(C(C)=O)CC4)ccc3Cl)ncc1CC2` was tested. Which IC50 did it give?
**A.** < 600 nM

**Q.** With `CC(=O)Nc1nc2c(s1)-c1nc(-c3cc(C#CC4CCN(C(=O)NC5CCCC5)CC4)ccc3Cl)ncc1CC2` as the compound, how does the IC50 read?
**A.** < 600 nM
